# Data reported in ChEMBL document CHEMBL3352341, “Design, synthesis and biological characterization of thiazolidin-4-one derivatives as promising inhibitors of Toxoplasma gondii” (Eur J Med Chem, 2014).
# Active and inactive are the calls of the source.
# Key:
# Toxoplasma gondii [1] = test: Antiparasitic activity against Toxoplasma gondii infected in human foreskin fibroblasts assessed as tachyzoite growth inhibition after 5 days by colorimetric assay; assay type: functional, organism-based; settings: 120 h
# [2] = Therapeutic index, ratio of TD50 for human foreskin fibroblasts to IC50 for Toxoplasma gondii infected in human foreskin fibroblasts; settings: read-out: TI
# Toxoplasma gondii [3] = test: Antiparasitic activity against Toxoplasma gondii infected in human foreskin fibroblasts assessed as inhibition of attachment compound pretreated at 10 uM for 20 mins before infection after 1 hr by fluorescence assay; assay type: functional, organism-based
# Toxoplasma gondii [4] = test: Antiparasitic activity against Toxoplasma gondii infected in human foreskin fibroblasts assessed as inhibition of invasion compound pretreated at 10 uM for 20 mins before infection after 1 hr by fluorescence assay; assay type: functional, organism-based
# Toxoplasma gondii [5] = test: Antiparasitic activity against Toxoplasma gondii infected in human foreskin fibroblasts assessed as inhibition of replication measured as decrease in the number of tachyzoites in vacuole at 10 uM after 24 hrs by fluorescence assay; assay type: functional, organism-based
# [6] = Cytotoxicity against human foreskin fibroblasts after 5 days by colorimetric assay; assay type: cell-based; settings: human foreskin fibroblasts (HFF cells), read-out: TD50
SMILES,IC50 (Toxoplasma gondii [1]),IC90 (Toxoplasma gondii [1]),selectivity ratio [2],inhibition (Toxoplasma gondii [3]),inhibition (Toxoplasma gondii [4]),inhibition (Toxoplasma gondii [5]),CC50 at 120 h [6]
O=C1CS/C(=N/N=C\c2ccncc2)N1,20 µM,129 µM,28,Active,Active,Active,≥ 320 µM
C/C(CC(C)C)=N/N=C1\NC(=O)CS1,23 µM,126 µM,13,Active,Active,Active,290 µM
C/C(=N/N=C1/SCC(=O)N1Cc1ccccc1)c1cccs1,37 µM,84 µM,15,Active,Active,Active,≥ 320 µM
O=C1CS/C(=N/N=C\c2cccc3ccccc23)N1Cc1ccccc1,38 µM,79 µM,15,Active,Active,–,≥ 320 µM
CC/C(C)=N\N=C1\SCC(=O)N1Cc1ccccc1,99 µM,392 µM,6,–,–,Active,≥ 320 µM
O=C1CS/C(=N/N=C2CCCCC2)N1Cc1ccccc1,255 µM,662 µM,2,–,–,Active,≥ 320 µM
C/C(=N/N=C1\NC(=O)CS1)c1ccccn1,2.9 µM,7 µM,6,–,–,Active,16 µM
O=C1CS/C(=N/N=C\c2cccs2)N1Cc1ccccc1,270 µM,1660 µM,< 1,–,–,Active,54 µM
CC(C)(C)C1CCCC/C1=N/N=C1/SCC(=O)N1Cc1ccccc1 (stereo not given),102 µM,295 µM,6,–,–,Active,≥ 320 µM
O=C1CS/C(=N/N=C\c2c[nH]c3ccccc23)N1,166 µM,474 µM,3,–,–,Active,≥ 320 µM
CCC/C(C)=N\N=C1\SCC(=O)N1Cc1ccccc1,47 µM,214 µM,12,–,–,Active,≥ 320 µM
O=C1CSC(NN=C2CCCC2)=N1,27 µM,175 µM,21,Active,Active,Active,≥ 320 µM
CCCC/C(CC)=N\N=C1/NC(=O)CS1,89 µM,288 µM,6,–,–,Active,≥ 320 µM
CCCC/C(CC)=N\N=C1\SCC(=O)N1Cc1ccccc1,15 µM,121 µM,37,Active,Active,Active,≥ 320 µM
C/C(=N/N=C1/SCC(=O)N1Cc1ccccc1)c1ccco1,76 µM,212 µM,7,–,–,Active,≥ 320 µM
O=C1CS/C(=N/N=C\c2c[nH]c3ccccc23)N1Cc1ccccc1,52 µM,177 µM,2,–,–,Active,102 µM
O=C1CS/C(=N/N=C\c2ccco2)N1Cc1ccccc1,111 µM,396 µM,5,–,–,Active,≥ 320 µM
O=C1CS/C(=N/N=C2CCCCCCC2)N1Cc1ccccc1,43 µM,508 µM,5,–,–,Active,205 µM
CCCCCC/C(C)=N\N=C1/NC(=O)CS1,31 µM,188 µM,18,Active,Active,Active,≥ 320 µM
C=CCC/C(C)=N\N=C1\SCC(=O)N1Cc1ccccc1,207 µM,885 µM,3,–,–,Active,≥ 320 µM
CC1CCC(=N/N=C2/SCC(=O)N2Cc2ccccc2)CC1 (stereo not given),88 µM,242 µM,3,–,–,Active,286 µM
C/C(=N/N=C1\NC(=O)CS1)c1ccccc1,114 µM,262 µM,5,–,–,Active,≥ 320 µM
CC1CCCC/C1=N/N=C1\NC(=O)CS1 (stereo not given),247 µM,785 µM,2,–,–,Active,≥ 320 µM
O=C1CSC(NN=C2CCCCC2)=N1,28 µM,278 µM,20,Active,Active,Active,≥ 320 µM

SMILES,IC50 (Toxoplasma gondii [1]),IC90 (Toxoplasma gondii [1]),selectivity ratio [2],inhibition (Toxoplasma gondii [3]),inhibition (Toxoplasma gondii [4]),inhibition (Toxoplasma gondii [5]),CC50 at 120 h [6]
O=C1CS/C(=N/N=C2CCCCCC2)N1Cc1ccccc1,255 µM,1530 µM,2,–,–,Active,≥ 320 µM
O=C1CS/C(=N/N=C\c2ccc3c(c2)OCO3)N1Cc1ccccc1,290 µM,2140 µM,2,–,–,Active,≥ 320 µM
O=C1CSC(NN=C2CCCCCC2)=N1,111 µM,387 µM,5,–,–,Active,≥ 320 µM
C/C(CC(C)C)=N/N=C1/SCC(=O)N1Cc1ccccc1,23 µM,188 µM,10,–,–,Active,220 µM
CCCCC/C(C)=N\N=C1/NC(=O)CS1,110 µM,686 µM,3,–,–,Active,320 µM
C/C(=N/N=C1/SCC(=O)N1Cc1ccccc1)c1ccc2ccccc2c1,109 µM,499 µM,5,–,–,Active,≥ 320 µM
C/C(=N/N=C1/SCC(=O)N1Cc1ccccc1)c1ccncc1,36 µM,103 µM,5,Active,Active,Active,183 µM
O=C1CS/C(=N/N=C\c2cccs2)N1,135 µM,2680 µM,4,–,–,Active,≥ 320 µM
CC1CCC/C1=N/N=C1\NC(=O)CS1 (stereo not given),0.9 µM,2 µM,39,Active,Active,Active,35 µM
CCCCCC/C(C)=N\N=C1\SCC(=O)N1Cc1ccccc1,20 µM,88 µM,6,–,–,Active,109 µM
CC(C)=C/C(C)=N\N=C1/NC(=O)CS1,97 µM,316 µM,6,–,–,Active,≥ 320 µM
CC1CCC/C(=N/N=C2\NC(=O)CS2)C1 (stereo not given),36 µM,310 µM,6,–,–,Active,202 µM
O=C1CS/C(=N/N=C2CCCC2)N1Cc1ccccc1,105 µM,330 µM,5,–,–,Active,≥ 320 µM
O=C1CS/C(=N/N=C\c2cccnc2)N1,52 µM,268 µM,11,–,–,Active,≥ 320 µM
CCC(CC)=N/N=C1/SCC(=O)N1Cc1ccccc1,36 µM,243 µM,16,–,–,Active,≥ 320 µM
O=C1CSC(NN=C2CCCCCCC2)=N1,79 µM,290 µM,4,–,–,Active,309 µM
C/C(=N/N=C1\NC(=O)CS1)c1ccc2ccccc2c1,56 µM,175 µM,10,–,–,Active,≥ 320 µM
C=CCC/C(C)=N\N=C1/NC(=O)CS1,195 µM,2220 µM,3,–,–,Active,≥ 320 µM
CC1CC/C(=N/N=C2/SCC(=O)N2Cc2ccccc2)C1 (stereo not given),184 µM,845 µM,3,–,–,Active,≥ 320 µM
C/C(=N/N=C1\NC(=O)CS1)c1cc2ccccc2oc1=O,8 µM,49 µM,70,Active,Active,–,≥ 320 µM
C/C(=N/N=C1/SCC(=O)N1Cc1ccccc1)c1cccnc1,82 µM,181 µM,3,–,–,Active,147 µM
C/C(=N/N=C1\NC(=O)CS1)c1cccnc1,74 µM,406 µM,8,–,–,Active,≥ 320 µM
CC1CCCC/C1=N/N=C1/SCC(=O)N1Cc1ccccc1 (stereo not given),43 µM,171 µM,13,–,–,Active,≥ 320 µM
